Test results: patent US12496310B2, “Compositions and methods for adoptive cell therapy” (MEMORIAL SLOAN KETTERING CANCER CENTER, priority 2017, dated 2025)

Columns and labels:
[1] = test system: Human Jurkat T cells; test: Prodrug activation by purified recombinant CPG2, Jurkat viability; type: cell-based; details: Jurkat viability at 48 hours
Experimental: FIG. 4 provides exemplary data showing activation of P-AMS (see FIG. 2) by recombinant CPG2 expressed and purified from E. coli. (A) Human Jurkat T cells were incubated with or without P-AMS in the presence of increasing concentration of purified CPG2. […] (B) Recombinant CPG2 was exposed to various concentrations of glutamated AMS prodrug. Following incubation at 37° C. (0.5, 1, 2, and 4 hr.), the reaction was combined with Amplex® Red (converts free glutamate to a fluorescent species) and fluorescent emission was analyzed using a fluorescence multiwell plate scanner.
The CPG2-pET151 vector was transformed into BL21 star E. coli cells and induced with IPTG. Bacteria were homogenized in a French Press and purified by affinity chromatography over Ni++ beads using standard protocols. Imidazole was exchanged via PBS dialysis and protein was purified via desalting spin columns. The expressed and purified CPG2 was assayed to confirm that the active enzyme was a potent converter of glutamated prodrugs. […] Pro-AMS was activated by recombinant CPG2 in vitro. Human Jurkat T cells were incubated with or without P-AMS in the presence of increasing concentration of purified CPG2. […] (FIG. 4B) Similar enzyme kinetics will be used to assess the characteristics of the enzyme activity for each of the prodrugs similarly. […]

[2] = test system: HEK293T cells expressing CPG2; test: Prodrug treatment of HEK293T cells expressing CPG2 variants; type: cell-based, human
Experimental: Expression of CPG2 without a signal peptide (CPG2nosigp) was employed as a control. HEK293t cells stably transfected with CPG2 variants were exposed to P-AMS (1 μM) for 48 hours and analyzed by bright field microscopy (FIG. 9A). Cells were exposed to varying concentrations of P-AMS and cell viability was analyzed at 48 hr post treatment (FIG. 9B).

[3] = test system: Jurkat T cells; details: increasing prodrug with CPG2 supernatant, 48 hours
[4] = test system: SET2 cells; test: SET2 viability with prodrug plus recombinant enzyme or enzyme-containing supernatant; type: cell-based; details: SET2, with Beta-lactamase supernatant
Experimental: Recombinant CPG2 protein was initially synthesized, purified (FIGS. 15A and 15B), and incubated with increasing concentrations of prodrug in a glutamate release assay (FIG. 14C). Mass spectrometry was used to determine that the glutamate moiety was released from all of the glutamate prodrugs.
Cell viability was measured by CellTitre-Glo® luminescence assay.
To determine to respective enzyme output of the Beta-lactamase constructs relative to the previous CPG2 constructs, a quantitative sandwich ELISA was used to determine the concentration (ng/mL) of purified recombinant CPG2, and a quantitative nitrocefin assay was used to determine the concentration (ng/mL) of purified recombinant Beta-lactamase (FIG. 22A). Cell viability was measured by CellTitre-Glo® luminescence in the presence of prodrug (glut-AMS or ceph-AMS) and varying concentrations of purified recombinant CPG2 or Beta-lactamase (FIG. 22B).

SMILES | activation by recombinant CPG2 in vitro [1] | activation of prodrug ([2]; HEK293T cells expressing CPG intracellularly) | cell death ([2]; stably transfected HEK293T with cell-secreted or transmembrane CPG2, 48 hr) | cell viability [3] | cell viability [4]
NS(=O)(=O)OC[C@H]1O[C@@H](n2cnc3c(NC(=O)N[C@@H](CCC(=O)O)C(=O)O)ncnc32)[C@H](O)[C@@H]1O [P-AMS, ((9-((2R,3R,4S,5R)-3,4-dihydroxy-5-((sulfamoyloxy)methyl)tetrahydrofuran-2-yl)-9H-purin-6-yl)carbamoyl)-L-glutamic acid] | activated | not activated | significant cell death | significant decrease in cell viability | 
Nc1ncnc2c1ncn2[C@@H]1O[C@H](COS(=O)(=O)NCC2=C(C(=O)O)N3C(=O)[C@@H](NC(=O)Cc4cccs4)[C@H]3SC2)[C@@H](O)[C@H]1O [ceph-AMS] |  |  |  |  | significant decrease in cell viability
